According to patent US9751840B2, “R-7-(3-aminomethyl-4-methoxyimino-3-methyl-pyrrolidin-1-yl)-1-cyclopropyl-6-fluoro-4-oxo-acid and L-aspartic acid salt, process for the preparation thereof and pharmaceutical composition comprising the same for antimicrobial” (ARIBIO CO. LTD., priority 2009, dated 2017):
≈ marks a conversion by molar mass, not a printed value.

Columns and labels:
[1] = Stability test in distilled water; format: physicochemical; conditions: 30 mg in 100 ml distilled water
Solubility test = format: physicochemical; conditions: room temperature, water
Male ICR mice = assay: Single dose toxicity in mice (LD50); conditions: single intraperitoneal dose, observed 14 days
Description: The following experiment was performed in order to observe the degree of toxicity of the L-aspartate according to the present invention.
Male ICR mice were used as experimental animals. 5 male ICR mice were divided into 6 dose groups, respectively and fasted except for water for 24 hours.

| SMILES | Content (%) 60? (after 3 weeks) [1] [%] | Content (%) Initial [1] [%] | Content (%) Room temperature (after 3 weeks) [1] [%] | solubility (Solubility test) [mg/mL] | Lethal dose 50 (Male ICR mice) [mg/kg] |
| --- | --- | --- | --- | --- | --- |
| CON=C1CN(c2nc3c(cc2F)c(=O)c(C(=O)O)cn3C2CC2)C[C@@]1(C)CN [Free form (Comparative Example 2)] | 34.6 | 97.3 | 96.8 | 2.79 (≈ 6.92 mM) |  |
| CON=C1CN(c2nc3c(cc2F)c(=O)c(C(=O)O)cn3C2CC2)C[C@@]1(C)CN.O=CO [Formate (Comparative Example 5)] | 75.1 | 89.7 | 89.7 | 27.5 |  |
| CON=C1CN(c2nc3c(cc2F)c(=O)c(C(=O)O)cn3C2CC2)C[C@@]1(C)CN.Cc1ccc(S(=O)(=O)O)cc1 | 87.3 | 98.6 | 98.1 | 5.78 |  |
| CON=C1CN(c2nc3c(cc2F)c(=O)c(C(=O)O)cn3C2CC2)C[C@@]1(C)CN.CS(=O)(=O)O [Methanesulfonate (Comparative Example 4)] | 89.6 | 96.4 | 96.8 | 99.1 |  |
| CON=C1CN(c2nc3c(cc2F)c(=O)c(C(=O)O)cn3C2CC2)C[C@@]1(C)CN.O=P(O)(O)O [Phosphate (Comparative Example 6)] | 91.2 | 98.1 | 97.9 | 57.8 | 176 |
